Calls of active or inactive are those of the source. How the calls were made is not given here.
Biological target: Regulator of G-protein signaling 8 (Homo sapiens) (UniProt P57771)
Experiment: RGS8-Galphao interaction modulators, dose response, biochemical, multiplex bead flow cytometry (AID 1869)
Settings: bead-based flow cytometry RGS8-Galphao binding; for Ki: measured here: Ki for RGS8-Galphao binding

Regulator of G-protein signaling 8 (Homo sapiens), sequence (P57771 whole entry, looked up): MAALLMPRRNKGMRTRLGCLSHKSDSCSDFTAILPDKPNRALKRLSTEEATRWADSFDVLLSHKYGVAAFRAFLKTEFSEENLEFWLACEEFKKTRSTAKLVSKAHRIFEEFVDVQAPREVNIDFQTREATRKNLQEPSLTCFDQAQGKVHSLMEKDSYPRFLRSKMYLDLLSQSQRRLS

Structure (SMILES) | Ki | EC50
O=C(Cc1csc(N2CCOCC2)n1)N/N=C/c1ccc(O)c(O)c1O | 13.8 µM | 
CCc1c(C(=O)Nc2ccccc2)c(C)[nH]c(=S)c1C#N | 7.87 µM | 
Cc1cc(C)c2c(=O)n(CC(=O)Nc3cccc(F)c3)sc2n1 | 6.53 µM | 
Cc1ccccc1-n1sc2cc(F)ccc2c1=O | 9.64 µM | 
CCNc1ccc2noc3c2c1C(=O)c1ccccc1-3 | 20.3 µM | 
CCOC(=O)C1CCCN(C(=O)Cn2sc3nc(C)cc(C)c3c2=O)C1 (stereo not drawn) | 4.49 µM | 
O=[N+]([O-])c1ccc(Sc2cccc[n+]2[O-])c2nonc12 | 2.54 µM | 
NS(=O)(=O)c1ccc(N/N=C/c2ccc(O)c(O)c2O)c([N+](=O)[O-])c1 | 1.4 µM | 1.69 µM
O=C(COc1ccccc1C(=O)N/N=C\c1ccc(O)c(O)c1)N/N=C/c1ccc(O)c(O)c1 | 2.49 µM | 
CCN1/C(=C/C(C)=C/c2sc3ccccc3[n+]2CC)Sc2ccccc21 | 7.38 µM | 
CN(C)[C@@H]1C(=O)C(C(=O)NCN2CCCC2)=C(O)[C@@]2(O)C(=O)C3=C(O)c4c(O)cccc4[C@@](C)(O)C3CC12 (stereo partly drawn) | 5.85 µM | 7.06 µM
COC(=O)CCC(=O)Nc1sc(C)c(C)c1C(N)=O | 4.93 µM | 
O=C(O)C[C@@H]1C(=O)O[C@@H]2C(COC(=O)c3cc(O)c(O)c(O)c3)O[C@@H](OC(=O)c3cc(O)c(O)c(O)c3)[C@@H](OC(=O)c3cc(O)c(O)c4c3[C@H]1[C@H](O)C(=O)O4)[C@H]2OC(=O)c1cc(O)c(O)c(O)c1 (stereo partly drawn) | 0.68 µM | 
CN=c1scc(C)n1/N=C/c1ccc(O)c(O)c1O | 7.21 µM | 
CC(=O)N(O)CCCCCNC(=O)CCC(=O)N(O)CCCCCNC(=O)CCC(=O)N(O)CCCCCN | 1.89 µM | 
O=C(NCCCN1CCOCC1)c1sc2cc([N+](=O)[O-])ccc2c1Cl | 2.16 µM | 
O=C(O[C@@H]1OC2COC(=O)c3cc(O)c(O)c(O)c3-c3c(cc(O)c(O)c3O)C(=O)O[C@@H]([C@H]1O)[C@@H]2O)c1cc(O)c(O)c(O)c1 | 1.45 µM | 
Nc1cccnc1Sc1ccc([N+](=O)[O-])cn1 | 13.7 µM | 
CCOC(=O)/C(C(=O)Nc1ccccc1Cl)=C1/NC(C)(C)Cc2ccccc21 |  | > 30 µM (inactive)

Structure (SMILES) | Ki | EC50
COc1ccccc1-n1c(-c2cc(-c3ccco3)[nH]n2)n[nH]c1=S | 6.97 µM | 
Cc1[nH]n(-c2ccccc2)c(=S)c1C=NCCCN=Cc1c(C)[nH]n(-c2ccccc2)c1=S | 4.25 µM | 
O=c1c2ccccc2sn1-c1cc(S(=O)(=O)N2CCOCC2)ccc1N1CCOCC1 | 4.21 µM | 
O=C1OCC2OC(O)C(O)C(O)C2OC(=O)c2cc(O)c(O)c(O)c2-c2c(O)c(O)c3oc(=O)c4c(c(O)c(O)c5oc(=O)c2c3c54)-c2c1cc(O)c(O)c2O (stereo not drawn) | 0.5 µM | 
O=c1c2ccccc2sn1-c1ccc(S(=O)(=O)N2CCCC2)cc1 | 8.61 µM | 
Cc1ccc(NC(=O)Cn2sc3nc(C)cc(C)c3c2=O)c(Cl)c1 | 11.7 µM | 
CC(NC(=O)c1sc2cc([N+](=O)[O-])ccc2c1Cl)C(C)(C)C (stereo not drawn) | 1.63 µM | 
O=C1CCCC2=C1C(c1cccs1)n1ncnc1N2 (stereo not drawn) |  | > 30 µM (inactive)
CCOC(=O)c1sc(NC(=O)CSc2nnc(Cc3ccccc3)o2)c(C#N)c1C | 5.55 µM | 
Cc1ccc(-n2sc3ccccc3c2=O)cc1S(=O)(=O)N1CCCCC1 | 9.95 µM | 
CCOC(=O)C1=C(C)NC(C)=C(C(=O)OCCNC(=O)c2cccnc2)C1c1cccc([N+](=O)[O-])c1 (stereo not drawn) |  | > 30 µM (inactive)
Nc1c(C(=O)NCC2CCCO2)sc2nc3c(c(-c4ccco4)c12)CC/C3=C\c1ccco1 (stereo not drawn) | 6.07 µM | 
O=c1c2ccccc2sn1-c1ccccc1 | 5.06 µM | 
CCN=c1scc(C)n1/N=C/c1ccc(O)c(O)c1O | 19.6 µM | 
O=C(OCC1O[C@@H](OC(=O)c2cc(O)c(O)c(O)c2)[C@@H](OC(=O)c2cc(O)c(O)c(O)c2)[C@@H](OC(=O)c2cc(O)c(O)c(O)c2)[C@@H]1OC(=O)c1cc(O)c(O)c(O)c1)c1cc(O)c(O)c(O)c1 (stereo partly drawn) | 1.05 µM | 
CN1CCN(C2=C(Cl)C(=O)C(c3cnc(N4CCCCC4)s3)=C(Cl)C2=O)CC1 | 0.11 µM | 
COc1ccc(Br)cc1/C=N/Nc1cccc(C(=O)O)c1 |  | > 30 µM (inactive)
Cc1cc(Cl)ccc1N=c1ssnc1Cl | 11.9 µM | 
CCOC(=O)N=Nc1c(O)n(C)c2ccccc12 |  | > 30 µM (inactive)

Structure (SMILES) | Ki | EC50
CCC(=O)NC(c1ccc(C)cc1)c1cc([N+](=O)[O-])c2cccnc2c1O (stereo not drawn) | 13.7 µM | 
O=c1c2ccccc2sn1-c1cc(S(=O)(=O)N2CCOCC2)ccc1N1CCCC1 | 3.05 µM | 
CCC(=O)NC1=C(Cl)C(=O)C(NC(=O)CC)=C(Cl)C1=O | 2.83 µM | 
O=C1C(Cl)=C(N2CCCCC2)C(=O)C(Cl)=C1c1cnc(N2CCCCC2)s1 | 0.95 µM | 
COCCCNC(=O)c1ccc2c3c(onc13)-c1ccccc1C2=O | 3.52 µM | 
O=C1CCC(=O)N(O)CCCCCNC(=O)CCC(=O)N(O)CCCCCNC(=O)CCC(=O)N(O)CCCCCN1 | 1.7 µM | 
Cc1cccc(N2CCN(C(=O)Cn3sc4nc(C)cc(C)c4c3=O)CC2C)c1 (stereo not drawn) | 12.8 µM | 
CC1(C)OC(=O)C(=Cc2ccc(-c3ccc(S(N)(=O)=O)cc3)o2)C(=O)O1 | 3.98 µM | 
COc1ccc(OC)c(CCNC(=O)Cn2sc3nc(C)cc(C)c3c2=O)c1 | 3.85 µM | 
Cc1[nH]n(-c2ccccc2)c(=S)c1C=Nc1cccc([N+](=O)[O-])c1 | 1.65 µM | 
CC(C)Sc1nc2ccc(N3C(=O)C4CCCCC4C3=O)cc2s1 (stereo not drawn) |  | > 30 µM (inactive)
CN(C)S(=O)(=O)c1cccc(-n2sc3ccccc3c2=O)c1 | 3.31 µM | 
Cc1cc(C)c2c(=O)n(CC(=O)Nc3ccc(Cl)cc3)sc2n1 | 5.27 µM | 
CN(C)c1ncc(C2=C(Cl)C(=O)C(N3CCCC3)=C(Cl)C2=O)s1 | 1.11 µM | 
COc1ccc(C2=CC(=O)C=CC2=O)cc1 | 6.01 µM | 
CCN(CC)S(=O)(=O)c1cccc(C(=O)N/N=C/c2ccc(O)c(O)c2O)c1 | 3.77 µM | 
O=c1[nH]c(=S)n(Cc2ccco2)c(O)c1C=NCc1cccs1 |  | > 30 µM (inactive)
CCN1/C(=C/C=C/C=C/c2sc3ccccc3[n+]2CC)Sc2ccccc21 | 4.71 µM | 

— PubChem BioAssay AID1869 (NMMLSC, 2009)
